Assay results as given in patent publication US7871978B2, “Bone tropic peptides” (University of Virginia Patent Foundation, priority 2004, dated 2011).
“Also recorded” adds a separate entry of the source.

Experiments:
[1] = tested on: bone and marrow tissue sections (mouse femur, rib); test: Biotinylated peptide binding to bone/marrow tissue sections, Avidin-FITC fluorescence; set-up: key to Localization of peptide binding: Bone/Marrow (tissue sections): ✓: Check marks indicate positive binding observed with FITC; −: a dash indicates a negative result; conditions: for Localization of peptide binding: Bone/Marrow (tissue sections): FITC; for Binding to rib and long bone growth plate sections: biotinylated peptides, 1/50,000 dilution of Avidin-FITC
In short: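 Cryosections (10 μm) of EDTA-decalcified femurs from 4-week-old mice were avidin/biotin-blocked, incubated 1 h at room temperature with 10 mM biotinylated peptide (PBS as negative control), then overnight at 4 °C with Avidin-FITC (1:50,000). Binding was visualized by fluorescence microscopy with a 535 nm fluorescein filter.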

[2] = tested on: bovine aortic endothelial cells; test: Effect of peptides on adherent bovine aortic endothelial cells on fibronectin or collagen; format: cell-based; conditions: 0.1M biotinylated peptide, 1 hour; cells adhered four hours on fibronectin or collagen
Experimental: Peptides from the phage display project were added to bovine aortic endothelial cells in culture. The endothelial cells had adhered to a surface coated with collagen or with fibronectin.
Experiment 1: Bovine aortic endothelial cells were plated on glass slides that were coated either fibronectin or collagen. The cell density was 5,000 cells/well. After the cells adhered for four hours, 0.1M of biotinylated peptide was added to each well. The following peptides were used: L1, L2, L5, L6, L7, L12, L13, L14, L19, R1, R3, and R8.
To perform this experiment, the media was removed and the cells were rinsed with 1×PBS plus 1% BSA three times. Peptides were diluted in 1×PBS plus 1% BSA, added to cells and incubated for 1 hour. The cells were rinsed three times with 1% BSA in PBS, and fixed with 2% parafomaldehyde. Aldehyde groups were blocked with 0.2 M HCl-glycine in PBS, the cells were rinsed three times with 1% BSA in PBS and ExtrAvidin-FITC (1:200 dilution) was added and incubated overnight at 4° C. The cells were rinsed three times with 1% BSA in PBS. The chambers and the gasket were removed from each slide, Vectashield was added, covered and viewed on a Nikon microscope. Images were acquired using a Coolsnap digital camera and Metavue software. […]
Experiment 3: The cells were adherent for about 6 hours and peptides at various concentrations were added to the cells. The concentrations of each of the peptides used in this experiment were: 0.1M, 0.01M, 0.001M and 0.0001M biotinylated peptide. The following peptides were tested: L1, L5, L6, L7, L13, L14, R1, R3, R8, DIP1 and PBS control (SEQ ID NOs:1, 3, 4, 5, 8, 9, 11, 13, 14, and 29).

[3] = tested on: bone and bone marrow; test: In vivo biopanning with 12-mer peptide phage display library; set-up: species or system BALB/c mice; conditions: for PERCENT FREQUENCY: phage eluted from bone and bone marrow; for PHAGE SEQUENCE FREQUENCY (number of times the sequence was found in a group of plaques): phage eluted from bone and bone marrow after repeated rounds
In short: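 BALB/c mice (8 weeks) received 3.4×10^10 pfu of a 12-mer peptide phage library (pIII fusion, GGGS spacer) by intracardiac injection and were euthanized after 5 min. Bound phage eluted from bone and bone marrow was titered, amplified and re-injected at the same dose. Peptide frequency was compared with liver, kidney, lung, spleen and brain; sequences identified by phage DNA sequencing.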

[4] = tested on: bovine aortic endothelial cells (BAEC); test: Peptide binding to BAEC in culture (Avidin-FITC); set-up: key: ✓: Check marks indicate positive binding observed with FITC; −: a dash indicates a negative result
Experimental: For localization of peptide binding to cells and tissue sections, biotinylated peptides were synthesized. Fluorescein-isothiocyanate (FITC) labeled Avidin was used to localize the peptides on cells in culture and in tissue sections in vitro by epiluminescence microscopy. In addition, the biotinylated peptides were detected at concentrations as low as 1 μM in slot blots.
Bone marrow cells isolated from mouse femur were lifted with ethylenediaminetetraacetic acid (EDTA) and trypsin, resuspended, and allowed to attach on fibronectin-coated chamber slides for Avidin-FITC staining. […] The D1 cell is a multipotential mesenchymal stem-like line that was isolated from bone marrow and shown to have the characteristics of osteoprogenitor cells. This cell line has been well established and used successfully in several in vitro and in vivo studies in our laboratory. Peptide binding to human bone marrow endothelial cells (HBME) and bovine aortic endothelial cells (BAEC) in culture was also tested using the same procedure.

[5] = tested on: Unicortical femoral defects; test: Peptide-mediated osteogenesis in cortical bone defects (Example 8); format: in vivo, Fisher 344 rats; conditions: for Histological appearance of repair tissue in the defect / Effectiveness at stimulating osteogenesis and cortical bone repair: 100 mM peptide in gelfoam, two weeks postoperatively; for Effectiveness at stimulating osteogenesis and cortical bone repair: versus gelfoam+PBS
In short: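 Peptides (100 mM in a 1.5 × 2 mm gelfoam carrier) were placed in 1.5 mm unicortical femoral defects in Fisher 344 rats, with the contralateral defect given gelfoam+PBS as control, and harvested at two weeks. L7 was also dosed at 1, 5 and 20 mM, and 20 mM L7 was followed over 5, 10, 15 and 20 days.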

[6] = biotinylated peptide, Avidin-FITC
[7] = BALB/c mouse decalcified femur cryosections, biotinylated peptide and Avidin-FITC
[8] = BALB/c mouse femur cryosections, biotinylated peptide
[9] = Swiss Webster mouse decalcified femur cryosections, 10 mM biotinylated peptide, 1 hour, Avidin-FITC
[10] = Swiss Webster mouse femur cryosections, 10 mM biotinylated peptide

| Substance | Localization of peptide binding: Bone/Marrow (tissue sections) [1] | Binding to bone and marrow in cryosections of mouse femur [1, 6] | Binding to fresh frozen sections of mouse rib [1, 6] | Binding to rib and long bone growth plate sections [1] | Effect on adherent BAEC (Experiment 1) [2] | PERCENT FREQUENCY [3] | PHAGE SEQUENCE FREQUENCY (number of times the sequence was found in a group of plaques) [3] | Localization of peptide binding: BAEC [4] | Histological appearance of repair tissue in the defect [5] | Effectiveness at stimulating osteogenesis and cortical bone repair [5] | Fluorescence detected in femur sections incubated with peptide [1, 7] | Cell shape preferentially recognized by peptide [1, 8] | Extent of marrow cells detected by fluorescence [1, 8] | Fluorescence detected in femur sections incubated with peptide [1, 9] | Cell shape preferentially recognized by peptide [1, 10] | Extent of marrow cells detected by fluorescence [1, 10] | New bone formation versus corresponding controls at every time point ([5]; 20 mM, 5, 10, 15, and 20 days) | Time course of cortical bone repair ([5]; 20 mM, 5, 10, 15, and 20 days) | Amount of bone that regenerated versus controls without peptide ([5]; 1, 5, and 20 mM) | Effect of peptide concentration on cortical bone regeneration ([5]; 1, 5, and 20 mM) |
| --- | --- | --- | --- | --- | --- | --- | --- | --- | --- | --- | --- | --- | --- | --- | --- | --- | --- | --- | --- | --- |
| SER-GLY-HIS-GLN-LEU-LEU-LEU-ASN-LYS-MET-PRO-ASN-GLY-GLY-GLY-SER (SGHQLLLNKMPNGGGS; listed as Homo sapiens) [Peptide L13] | ✓ | binds to areas of bone and marrow in cryosections of mouse femur | binds to fresh frozen sections of mouse rib containing bone and marrow cells | significant binding to rib and long bone growth plate | no effect, with results similar to PBS | 23.3% | 7/30 | − | a considerable amount of gelfoam remaining in the defects, with thinner and more loosely organized cortical bone | least effective for cortical bone repair |  |  |  |  |  |  |  |  |  |  |
| ASN-TYR-SER-HIS-LEU-ARG-VAL-LYS-LEU-PRO-THR-PRO-GLY-GLY-GLY-SER (NYSHLRVKLPTPGGGS; listed as Homo sapiens) [Peptide R1] | ✓ |  |  | significant binding to rib and long bone growth plate | the cells had lifted completely and most of the cells disappeared from the surface of the slides, leaving a lot of cell debris | 24.1% | 7/29 | ✓ | considerable amounts of cortical bone in the defects | potentiate bone regeneration in vivo; also recorded: most effective at stimulating osteogenesis and cortical bone repair; also recorded: most effective peptides for osteogenesis and repair of cortical defects | Fluorescence was detected | recognized the round cells preferentially | did not detect as many cells | Fluorescence was detected | recognized the round cells preferentially | did not detect as many cells |  |  |  |  |
| ASN-SER-MET-ILE-ALA-HIS-ASN-LYS-THR-ARG-MET-HIS-GLY-GLY-GLY-SER (NSMIAHNKTRMHGGGS; listed as Homo sapiens) [Peptide L7] | ✓ |  |  |  | the cells lifted and formed clusters that stained intensely | 3.6% | 1/28 | ✓ | considerable amounts of cortical bone in the defects | potentiate bone regeneration in vivo; also recorded: most effective at stimulating osteogenesis and cortical bone repair; also recorded: most effective peptides for osteogenesis and repair of cortical defects | Fluorescence was detected | Cells that appeared morphologically elongated showed the highest fluorescence intensity | most of the cells were detectable but fluorescence intensity was variable | Fluorescence was detected | Cells that appeared morphologically elongated showed the highest fluorescence intensity | most of the cells were detectable but fluorescence intensity was variable | new bone formation was greater in the defects treated with peptide compared with the corresponding controls | Cortical bone regeneration increased with time | increased with all the concentrations of peptide, even at 1 mM and 5 mM compared with the controls without peptide | Osteogenesis was most pronounced with the highest concentration of peptide |
